# Where two headings read alike, the source gives them in different places.
# Key:
# [1] = target: α-melanocyte-stimulating hormone receptor (hMC4R) (Homo sapiens (Human), UniProt P32245); assay: In vitro binding affinity assay using hMC4R (radioligand competition binding, [125I]-(Nle4, D-Phe7)-α-MSH); settings: geometric mean, read-out: Ki (nM) geometric
# Method in brief: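 Membranes from CHO cells stably expressing hMC4R (2 μg/well) incubated 2 h RT with [125I]-NDP-α-MSH and compound (300 nM-0.01 nM, 1% DMSO); 2 μM α-MSH defined nonspecific binding. Filtration and scintillation counting; Ki from IC50 via Cheng-Prusoff.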
# [2] = target: human Melanocortin-4 receptor (MC4R) (Homo sapiens (Human), UniProt P32245); assay: Functional in vitro MC4R antagonist potency assay (cAMP HTRF in CHO cells, αMSH EC80 stimulation); assay type: cell-based
# Chain of human Melanocortin-4 receptor (MC4R) (P32245 whole entry): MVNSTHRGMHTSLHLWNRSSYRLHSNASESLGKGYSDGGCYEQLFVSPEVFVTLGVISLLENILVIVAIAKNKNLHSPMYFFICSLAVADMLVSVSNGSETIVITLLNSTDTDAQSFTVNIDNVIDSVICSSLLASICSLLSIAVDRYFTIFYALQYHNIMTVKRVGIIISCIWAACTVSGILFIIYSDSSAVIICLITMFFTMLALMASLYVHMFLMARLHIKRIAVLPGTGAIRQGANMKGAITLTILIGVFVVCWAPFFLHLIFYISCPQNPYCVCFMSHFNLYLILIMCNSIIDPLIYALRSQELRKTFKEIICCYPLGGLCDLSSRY
# Description: The functional in vitro antagonist potency for test compounds was determined by monitoring intracellular cyclic adenosine monophosphate (cAMP) levels in Chinese hamster ovary (CHO—) cells stably expressing the human Melanocortin-4 receptor (MC4R). […] The activated Ga subunit can couple to downstream effectors to regulate the levels of second messengers or cAMP within the cell. Thereby, determination of intracellular cAMP levels allows for pharmacological characterization. Intracellular cAMP levels are quantitated using a homogenous assay utilizing the Homogeneous Time-Resolved Fluorescence (HTRF) technology from CisBio. The method is a competitive immunoassay between native cAMP produced by cells and the cAMP labelled with the acceptor dye, d2. The two entities then compete for binding to a monoclonal anti-cAMP antibody labeled with cryptate. The specific signal is inversely proportional to the concentration of cAMP in the cells.
# Test compounds were solubilized to 30 mM in 100% dimethyl sulfoxide (DMSO) and stored. […]
# (95% O2: 5% CO2) overnight, with micro-clime lids (Labcyte, Cat No. LLS-0310). […] Intracellular cAMP levels were quantified as per Cisbio's protocol (5 uL of D2 and then 5 uL Cryptate, incubated for 1-2 hours at room temperature).
# Data expressed as nM cAMP were then normalized to control wells using Activity Base (IDBS). […]
# Chain of α-melanocyte-stimulating hormone receptor (hMC4R) (P32245 whole entry): as above
SMILES,Ki [1] [nM],Kb ([2]; read-out: Kb (nM) Antagonist geometric) [nM],"Kb ([2]; cAMP HTRF in CHO cells expressing human MC4R, 200 nM αMSH (EC80), Kb by Leff-Dougall equation, geometric mean) [nM]"
"COc1cc([C@@H](C)C(=O)N2CC[C@@]3(CCc4cc(-c5cnccn5)c(C)nc4N3)C2)c(F)cn1 [Example 142, (2R)-2-(5-fluoro-2-methoxypyridin-4-yl)-1-[(2S)-7-methyl-6-(pyrazin-2-yl)-3,4-dihydro-1H-spiro[1,8-naphthyridine-2,3′-pyrrolidin]-1′-yl]propan-1-one]",1.8,3.6,–
"COc1cc([C@@H](C)C(=O)N2CC[C@@]3(CCc4cc(Cl)c(C)nc4N3)C2)c(F)cn1 (single isomer, unassigned) [Example 103]",–,–,> 92

# Reference: patent US20250084084A1, “Crystalline form of (2R)-2-(5-fluoro-2-methoxypyridin-4-yl)-1-[(2S)-7-methyl-6-(pyrimidin-2-yl)-3,4-dihydro-1H-spiro[1,8-naphthyridine-2,3-pyrrolidin]-1-yl]propan-1-one” (Pfizer Inc., priority 2020, published 2025)
